Data published in patent publication US20220299513A1, “IRF2 AS A PROGNOSTIC BIOMARKER AND TARGET FOR AUGMENTING IMMUNOTHERAPY” (University of Massachusetts, priority 2019, published 2022).

How the values were obtained:
[1] = tested on: IRF2 mRNA in F221 murine sarcoma cells; test: IRF2 mRNA levels by qPCR in drug-treated F221 cells; type: cell-based; conditions: Vorinostat 1 uM or 5 uM, Decitabine 5 uM, 24 hrs, vs DMSO control
Procedure: (§1) FIGS. 13A-B. (A) IRF2 & TAP2 mRNA levels, and MHC I surface protein levels in […] murine sarcoma cells treated with Vorinostat (1 uM or 5 uM), Decitabine (5 uM), or control diluent (DMSO) with no drug; (B) surface expression of MHC I on […] MCA-sarcoma cells treated with Vorinostat (5 uM) and/or Decitabine (5 uM). RNA was extracted from cell lines using the RNeasy kit (Qiagen) or from formalin-fixed paraffin-embedded non-small cell lung cancers using the RNeasy FFPE kit (Qiagen) and reverse transcribed to cDNA using EcoDry pre-mix random hexamers (Clontech). 50 ng cDNA were used per well (done in triplicate) with indicated TaqMan probes (Applied Biosystems), according to the manufacturer's instructions. The TaqMan probes used were as follows: We tested two epigenetic modifiers on an IRF2low, MHC I low murine cancer cell line ([…] MCA-sarcoma). […] murine sarcoma cells were treated with Vorinostat (1 uM or 5 uM), Decitabine (5 uM), or control diluent (DMSO) with no drug for 24 hrs and then assayed for IRF2 and TAP2 mRNA levels by qPCR and MHC I protein levels by flow cytometry.

[2] = tested on: TAP2 mRNA in F221 murine sarcoma cells; test: TAP2 mRNA levels by qPCR in drug-treated F221 cells; type: cell-based; conditions: Vorinostat 1 uM or 5 uM, Decitabine 5 uM, 24 hrs, vs DMSO control
Procedure: as §1

[3] = tested on: surface MHC I (H-2Kb) on F221 MCA-sarcoma cells; test: Surface MHC I protein levels by flow cytometry in drug-treated F221 cells; type: cell-based; conditions: F221 murine sarcoma cells; Vorinostat 1 uM or 5 uM, Decitabine 5 uM; 24 hrs; vs DMSO control
Text: Where indicated, mouse cells were blocked with 2.4G2 and stained for surface MHC class I levels with anti-K^b-APC (eBioscience, AF6-88.5.5.3), MHC class II levels with anti-I^A/I^E-PECy7 (BioLegend, M5/114.15.2), PD-L1 levels with anti-PD-L1-PE (BioLegend, 10F.9G2), or with isotype controls (eBioscience mouse IgG2a-APC eBM2a, eBioscience rat IgG2b κ-PE eB149) at 1:200 dilutions.
We tested two epigenetic modifiers on an IRF2low, MHC I low murine cancer cell line (F221 MCA-sarcoma). F221 murine sarcoma cells were treated with Vorinostat (1 uM or 5 uM), Decitabine (5 uM), or control diluent (DMSO) with no drug for 24 hrs and then assayed for IRF2 and TAP2 mRNA levels by qPCR and MHC I protein levels by flow cytometry.
In addition, F221 MCA-sarcoma cells were treated with a combination of Vorinostat (5 uM) and/or Decitabine (5 uM) for 24 hrs and then surface expression of MEW I molecules were quantified by flow cytometry.

[4] = tested on: surface MHC-I on IRF2-KO DC3.2; test: Surface MHC-I on IRF2-KO DC3.2 after interferon stimulation (flow cytometry); type: cell-based, mouse
Procedure: (§2) FIGS. 5A-E. IRF2-IRF1 balance. (A) Normalized MFI of surface MHC I and PD-L1 levels on the indicated single or double (IRF1+IRF2, double knock out (DKO)) DC3.2 knockout lines after overnight incubation with either media alone or 2 ng/mL IFNγ; bars represent mean+SEM (N≥3); (B) Western blot for IRF1 and IRF2 (and β-actin as loading control) in the DC3.2 knockout lines in the absence or presence of 2 ng/mL IFNγ for the durations indicated; (C) ChIP-qPCR of DC3.2 WT cells stimulated with ±2 ng/mL IFNγ for 2 hrs for TAP2 (top), ERAP1 (middle), or PD-L1 (bottom) DNA with rabbit anti-IRF2 IgG, rabbit anti-IRF1 IgG, or normal rabbit IgG (control). Bars represent mean +SEM fold enrichment (2^^-ΔCt) over the normal rabbit IgG control IP (N=2); (d, e) Heatmap of genes differentially expressed between the DC knockout lines (D) at baseline or (E) after stimulation with ±2 ng/mL IFNγ for 2 hrs. For clarity, only a few genes are shown. Statistical analysis by two-tailed ratio paired t-tests. *p<0.05, **p<0.01, ***p<0.001, ****p<0.0001, ns=not significant.
FIGS. 10A-B. (A) Normalized MFI of surface MHC I and PD-L1 levels on DC3.2 stable knockout lines after overnight incubation with 5,000 U/mL IFNα; bars represent mean+SEM (N=3). Statistical analysis by two-tailed ratio paired t-tests. […]

[5] = tested on: surface MHC-I on A549 cells; test: Surface MHC-I on IFNγ-stimulated A549 (flow cytometry); type: cell-based, human; conditions: overnight IFNγ stimulation
Text: (§3) FIGS. 6A-J. IRF2 and cancer. (A) Differential IRF2 expression in tumor and normal tissue from patients with the indicated cancer types (TCGA abbreviations), as queried from TIMER^29; (B) IRF2 mRNA expression in patient NSCLC specimens scored as PD-L1 low (1-50%) or high (>50%) by immunohistochemistry. IRF2 mRNA expression was normalized to GAPDH mRNA expression in each lung specimen and then IRF2 expression across specimens was compared by calculating fold changes over the lowest IRF2-expressing specimen, which was set equal to 1. Statistical analysis by Mann-Whitney U test, **p<0.01; (C) TAP2 (top) and ERAP1 (bottom) mRNA correlations with IRF2 mRNA in NSCLC specimens. Linear regression models shown with R^2 for goodness of fit. (D-E) Geometric MFI of surface MHC I (left) and PD-L1 (right) on (D) unstimulated or (E) overnight IFNγ-stimulated A549 lines knocked out for IRF2 (“IRF2 KO”) or control (“WT”) or overexpressing IRF2 or empty vector (EV) as control. Bars represent mean +SEM (N=3). Statistical analysis by two-tailed ratio paired t-tests. *p<0.05, **p<0.01, ***p<0.001; (F) Geometric MFI of surface MHC-I and PD-L1 on unstimulated or IFNγ-stimulated human breast carcinoma (BT20 and MCF7) lines knocked out for IRF2 (“IRF2 KO”) or control (“WT”). […] After 4 hours, specific killing was quantified by flow cytometry. […]

[6] = tested on: surface PD-L1 on A549 cells; test: Surface PD-L1 on IFNγ-stimulated A549 (flow cytometry); type: cell-based, human; conditions: overnight IFNγ stimulation
Text: as §3

[7] = tested on: PD-L1 promoter in DC3.2 WT cells; test: ChIP-qPCR of IRF1/IRF2 binding to the PD-L1 promoter after IFNγ stimulation; type: cell-based, mouse; conditions: 2 ng/mL IFNγ for 2 hrs
Procedure: as §2
It is well-established that IRF1 can promote IFNγ-inducible activation of PD-L1^27,28. […]
ChIP procedure generally followed the Thermo Fisher ChIP protocol. […] Chromatin was sheared by sonication for 20 min and fragment size (˜300 bp) was determined by gel electrophoresis. […]

**Q.** Which “expression of IRF2 mRNA” value [1] does the source give for `O=C(CCCCCCC(=O)Nc1ccccc1)NO` [Vorinostat, Suberoylanilide hydroxamic acid] here?
**A.** Its value is “increased”.

**Q.** And the “mRNA for IRF2's target gene, TAP2” value [2]?
**A.** Its value is “increased”.

**Q.** What about the “surface MHC I (H-2Kb) protein levels” value [3] of the same compound?
**A.** The value was “increased”.

**Q.** IFNα was tested. Which “surface MHC-I expression in the IRF2-KO DC3.2” value ([4]; overnight incubation with 5,000 U/mL IFNα) did it give?
**A.** The value was “restored”.

**Q.** What does the source list for “IFNγ: interferon gamma used to stimulate cells (mouse IFNγ 2 ng/mL for DC3.2)”?
**A.** surface MHC-I expression in the IRF2-KO DC3.2 ([4]; overnight incubation with 2 ng/mL IFNγ): restored; surface MHC-I expression [5]: augmented; surface PD-L1 expression [6]: augmented; IRF1 binding to the PD-L1 promoter [7]: increased IRF1 binding; IRF2 binding to the PD-L1 promoter [7]: decreased IRF2 binding
